Assay results from US20030022826A1, “Use of synthetic peptides to induce tolerance to pathogenic T and B cell epitopes of autoantigens or infectious agents” (priority 1987, published 2003).
Marks after values point to notes of the source that are not given here.

Columns and labels:
[1] = test system: Th-B peptide, T1-SP10IIIB; experiment: Endpoint ELISA anti-peptide antibody titers in chimpanzees immunized with HIV env synthetic peptides; assay type: in vivo, chimpanzee; settings: for immunogenicity in chimpanzees (antibody response): low (0.1 mg/kg) or high (0.5 mg/kg) doses in IFA
Experimental: Immunizations: For goats, 3 mg of peptide were injected intramuscularly in each gluteal region in complete Freund's adjuvant (CFA) (1st dose), then incomplete Freund's adjuvant (IFA) (subsequent doses). […]
When neither peptide design induced neutralizing anti-HIVIIIB antibodies, the peptide doses were increased to approximately 0.5 mg/kg (30 mg/animal) and the right-hand side neutralizing sequence of HIVIIIB gp120 V3 loop (the (A) region) (Hart et al, Proc. Natl. Acad. Sci. USA 88:9448; Rusche et al Proc. Natl. Acad. Sci. USA 85:3198)) (Table 8) was added to the Th-B peptide to enhance the ability of this peptide to induce anti-HIVIIIB neutralizing antibodies. After 3 monthly injections with either ˜0.5 mg/kg (30 mg) Th-B or F-Th-B peptide, the animals were rested for 6 months, and then reimmunized with either F-Th-B or Th-B with sequences from HIVIIIB, or with the Th-B peptide containing HIV env gp120 V3 sequences from the HIVMN isolate.

[2] = test system: Th-B peptide, T1-SP10IIIB(A); experiment: PBMC 3H-thymidine incorporation response to HIV Th-B peptide in immunized chimpanzees; assay type: in vivo, chimpanzee; settings: 7 day tritiated thymidine incorporation assays
Excerpt: Acpm=experimental cpm—control cpm.

[3] = test system: HIVIIIB; experiment: Anti-HIVIIIB neutralizing antibodies in immunized goats (reverse transcriptase inhibition); assay type: in vivo, HIV; settings: 3 mg, CFA then IFA, after the fourth immunization
Experimental: FIG. 15. […] Goat 102A was immunized with 3 mg of the F-Th-B peptide, F-T1-SP10IIIB(A) and goat 104A was immunized with the HIVIIIB Th-B peptide, T1-SP10IIIB. Immunizations were in CFA (first dose) and IFA (doses 2-4). Neutralizing titers are titers at which reverse transcriptase production was inhibited by 90% or greater.
Immunizations: For goats, 3 mg of peptide were injected intramuscularly in each gluteal region in complete Freund's adjuvant (CFA) (1st dose), then incomplete Freund's adjuvant (IFA) (subsequent doses). For immunization of chimpanzees, varying doses of peptides were injected IM in IFA in a total volume of 4 cc, with 1 cc injected into right and left upper arms and thighs.
(§1) HIV Neutralization Assays: The ability of chimpanzee or goat serum antibodies to neutralize HIV was determined in syncytium inhibition assay and reverse transcriptase inhibition assay as previously described (Palker et al, J. Immunol. 142:3612 (1989); Palker et al, Proc. Natl. Acad. Sci. USA 85:1932 (1988)). Sera were heat inactivated (30 min, 56° C.) prior to each assay.

[4] = test system: human JY B cells; experiment: Peptide binding to human cells, flow cytometry with anti-gp120 mab 0.5beta; assay type: cell-based; settings: mean channel fluoresence, peptide 10 ug/ml
Experimental: Anti-gp120 momoclonal antibody was 0.5beta from the NIAID AIDS Research and Reference Reagent Program (Matsushita et al J. Virol. 62:2107, 1988). […] The amount of fluoresence was determined on a flow cytometer and fluoresence brightness was expressed as MFC=mean channel fluoresence.

[5] = test system: JY B cells; experiment: Peptide entry into cells, intracytoplasmic fluorescence of acetone-fixed cells; assay type: cell-based, human; settings: for % Intracytoplasmic Positive: peptide 10 μg/ml, 21 hours at 37 degrees C
Experimental: Cells were incubated as descirbed in Table 13. After 21 hours at 37 degrees C., cytocentrifuge preparations of cells were prepared, acetone fixed, and reacted either with control mab P3x63 AgS or with anti-qp120 mab 0.5beta. Slides were read for either faint or bright intracytoplasmic fluoresence on a fluoresence microscope.

[6] = test system: HIV LAI/IIIB; experiment: Syncytium inhibition assay with sera of immunized chimpanzees, HIV LAI/IIIB; assay type: in vivo
Experimental: as §1

[7] = test system: HIV MN; experiment: Syncytium inhibition assay with sera of immunized chimpanzees, HIV MN; assay type: in vivo
Experimental: as §1

[8] = test system: HIV LAI/IIIB; experiment: Reverse transcriptase inhibition assay with sera of immunized chimpanzees, HIV LAI/IIIB; assay type: in vivo
Experimental: as §1

[9] = test system: HIV MN; experiment: Reverse transcriptase inhibition assay with sera of immunized chimpanzees, HIV MN; assay type: in vivo
Experimental: as §1

[10] = chimpanzee 1045 serum, Month 19, prior F-Th-B(IIIB)
[11] = chimpanzee 1045 serum, Month 20, prior F-Th-B(IIIB)
[12] = chimpanzee 1070 serum, Month 18, prior F-Th-B(IIIB)
[13] = chimpanzee 1070 serum, Month 19, prior F-Th-B(IIIB)
[14] = chimpanzee 1070 serum, Month 20, prior F-Th-B(IIIB)

KQIINMWQEVGKAMYACTRPNNNTRKSIRIQRGPG [Peptide T1-SP10IIIB, HIVIIIB Th-B peptide]
immunogenicity in chimpanzees (antibody response) [1]: potent immunogens
PBMC proliferation to T1-SP10IIIB(A) peptide [2]: induced high levels of proliferation
induction of serum anti-HIV neutralizing antibodies [3]: induced anti-HIV neutralizing antibodies in goats

KQIINMWQEVGKAMYACTRPNNNTRKSIRIQRGPGRAFVTI [T1-SP10IIIB(A), HIVIIIB Th-B peptide with (A) region]
immunogenicity in chimpanzees (antibody response) [1]: potent immunogens
PBMC proliferation to T1-SP10IIIB(A) peptide [2]: induced high levels of proliferation
MFC 4 Degrees C., 1 Hr. ([4]; 4 degrees C, 1 hour): 14.7
MFC 37 Degrees C., 22 Hr. ([4]; 37 degrees C, 22 Hr.): 14.0
% Intracytoplasmic Positive ([5]; Anti-gp120 mab 0.5beta): 0%
% Intracytoplasmic Positive ([5]; Control antibody (mab P3x63 AgS)): 0%

KQIINMWQEVGKAMYACTRPNYNKRKRIHIGPGRAFYTTK [T1-SP10MN(A), HIVMN Th-B peptide]
Reciprocal of ELISA Titer ([1]; chimpanzee 884, month 17, after Th-B(IIIB) months 2-14): 12,800
Reciprocal of ELISA Titer ([1]; chimpanzee 884, month 18, after Th-B(IIIB) months 2-14): 25,600
Reciprocal of ELISA Titer ([1]; chimpanzee 884, month 19, after Th-B(IIIB) months 2-14): 25,600
Reciprocal of ELISA Titer ([1]; chimpanzee 884, month 20, after Th-B(IIIB) months 2-14): 51,200
Reciprocal of ELISA Titer ([1]; chimpanzee 1028, month 17, after Th-B(IIIB) months 2-14, injections in PBS alone): 3,200
Reciprocal of ELISA Titer ([1]; chimpanzee 1028, month 18, after Th-B(IIIB) months 2-14, injections in PBS alone): 6,400
Reciprocal of ELISA Titer ([1]; chimpanzee 1028, month 19, after Th-B(IIIB) months 2-14, injections in PBS alone): 1,600
Reciprocal of ELISA Titer ([1]; chimpanzee 1028, month 20, after Th-B(IIIB) months 2-14, injections in PBS alone): 6,400
Reciprocal of ELISA Titer ([1]; chimpanzee 1045, month 17, after F-Th-B(IIIB) months 2-14 and Th-B(IIIB) month 16): 1,600
Reciprocal of ELISA Titer ([1]; chimpanzee 1045, month 18, after F-Th-B(IIIB) months 2-14 and Th-B(IIIB) month 16): 6,400
Reciprocal of ELISA Titer ([1]; chimpanzee 1045, month 19, after F-Th-B(IIIB) months 2-14 and Th-B(IIIB) month 16): 6,400
Reciprocal of ELISA Titer ([1]; chimpanzee 1045, month 20, after F-Th-B(IIIB) months 2-14 and Th-B(IIIB) month 16): 51,200
Reciprocal of ELISA Titer ([1]; chimpanzee 1070, month 17, after F-Th-B(IIIB) months 2-14 and Th-B(IIIB) month 16): 3,200
Reciprocal of ELISA Titer ([1]; chimpanzee 1070, month 18, after F-Th-B(IIIB) months 2-14 and Th-B(IIIB) month 16): 25,600
Reciprocal of ELISA Titer ([1]; chimpanzee 1070, month 19, after F-Th-B(IIIB) months 2-14 and Th-B(IIIB) month 16): 51,200
Reciprocal of ELISA Titer ([1]; chimpanzee 1070, month 20 (month 20 immunization not given), after F-Th-B(IIIB) months 2-14 and Th-B(IIIB) month 16): 102,400#
Presence of Neutralization in Syncytium Inhibition Assay [6, 10]: +/− (≧49% and <80% inhibition of syncytia.)
Presence of Neutralization in Syncytium Inhibition Assay [6, 11]: − (<48% inhibition of syncytia.)
Presence of Neutralization in Syncytium Inhibition Assay [6, 12]: +/− (≧49% and <80% inhibition of syncytia.)
Presence of Neutralization in Syncytium Inhibition Assay [6, 13]: + (≧80% inhibition of syncytia, titer 1:10.)
Presence of Neutralization in Syncytium Inhibition Assay [6, 14]: +/− (≧49% and <80% inhibition of syncytia.)
Presence of Neutralization in Syncytium Inhibition Assay ([7]; chimpanzee 1045 serum, Month 18, prior F-Th-B(IIIB)): − (<48% inhibition of syncytia.)
Presence of Neutralization in Syncytium Inhibition Assay [7, 10]: − (<48% inhibition of syncytia.)
Presence of Neutralization in Syncytium Inhibition Assay [7, 11]: − (<48% inhibition of syncytia.)
Presence of Neutralization in Syncytium Inhibition Assay [7, 12]: − (<48% inhibition of syncytia.)
Presence of Neutralization in Syncytium Inhibition Assay [7, 13]: + (≧80% inhibition of syncytia, titer 1:10.)
Presence of Neutralization in Syncytium Inhibition Assay [7, 14]: ++ (≧80% inhibition of syncytia, titer 1:20.)
Reciprocal Titer in RT Inhibition Assay [8, 10]: 23
Reciprocal Titer in RT Inhibition Assay [8, 11]: 22
Reciprocal Titer in RT Inhibition Assay [8, 12]: 92
Reciprocal Titer in RT Inhibition Assay [8, 13]: 100
Reciprocal Titer in RT Inhibition Assay [8, 14]: 86
detection of peptide inside the JY B cells ([5]; 10 ug/ml of peptide for 21 hours at 37 degrees C): could not be detected
Reciprocal Titer in RT Inhibition Assay ([9]; chimpanzee 884 serum, Month 18, prior Th-B(IIIB)): 20
Reciprocal Titer in RT Inhibition Assay ([9]; chimpanzee 884 serum, Month 20, prior Th-B(IIIB)): 24
Reciprocal Titer in RT Inhibition Assay ([9]; chimpanzee 1045 serum, Month 18, prior F-Th-B(IIIB), Th-B(IIIB)): 23
Reciprocal Titer in RT Inhibition Assay ([9]; chimpanzee 1045 serum, Month 19, prior F-Th-B(IIIB), Th-B(IIIB)): 23
Reciprocal Titer in RT Inhibition Assay ([9]; chimpanzee 1045 serum, Month 20, prior F-Th-B(IIIB), Th-B(IIIB)): 24
Reciprocal Titer in RT Inhibition Assay ([9]; chimpanzee 1070 serum, Month 18, prior F-Th-B(IIIB), Th-B(IIIB)): 22
Reciprocal Titer in RT Inhibition Assay ([9]; chimpanzee 1070 serum, Month 19, prior F-Th-B(IIIB), Th-B(IIIB)): 96
Reciprocal Titer in RT Inhibition Assay ([9]; chimpanzee 1070 serum, Month 20, prior F-Th-B(IIIB), Th-B(IIIB)): 350
